Where two headings read alike, the source gives them in different places.
Legend:
[1] = target: T1, cloned human P2Y1 receptors (Homo sapiens (Human), UniProt P47900); assay: Binding Assay A: membrane binding assay, [33P] 2MeS-ADP; details: values marked *; WGA FlashPlate, [33P] 2MeS-ADP displacement; read-out: P2Y1 Ki (nM) *Using binding assay A
Text: A membrane binding assay was used to identify inhibitors of [^33P] […] The cDNA clone for human P2Y1 was obtained from Incyte Pharmaceuticals and its sequence confirmed by established techniques (for a compendium of techniques used see Ausubel, F. et al. Current Protocols in Molecular Biology, John Wiley and Sons, NY, N.Y. (1995)). The essential coding sequences were subcloned into pCDNA 3.1 (Invitrogen) to produce a P2Y1 expression construct. This construct was then transfected into the human embryonic kidney cell line HEK-293 and stable transfectants selected in GENETICIN® (G418 sulfate; Life Technologies). […] Membranes were prepared by growing HEK293 #49 in 150 mm dishes in DMEM/10% FBS in the presence of 1 mg/ml G418 until cells were 80-90% confluent. Plates were then washed with cold (4° C.) D-PBS twice and cells harvested by scraping into 10 mL D-PBS. Cells were pelleted by centrifugation (1,000 g, 10 min, 4° C.) and the resulting pellet resuspended in Lysis Buffer (10 mM Tris (7.4), 5 mM MgCl2 containing Complete protease inhibitor cocktail (Roche Cat #1873580) as recommended by the manufacturer). The suspension was then homogenized in a Dounce homogenizer (10-15 strokes; B pestle, on ice) and the homogenate spun at 1,000 g, 4° C., 5 min to pellet large debris. The supernatant was centrifuged at 150,000 g, 4° C., for 1 hour and the resulting membrane pellet resuspended in 0.5-1 mL of Buffer B (15 mM HEPES (7.4), 145 mM NaCl, 0.1 mM MgCl2, 5 mM EDTA, 5 mM KCl) and stored at −70° C. until used.
Binding reactions were performed in WGA FLASHPLATE®s (PerkinElmer Life Sciences, Cat # SMP105A) in a volume of 200 μL containing ˜45 fmol of P2Y1 receptor (5 μg of total protein), 0.5 nM [^33P] […] Reactions were allowed to proceed to completion at room temperature for 1 hour and then the aqueous solution aspirated. Plates were sealed and the residual [^33P] bound to the plate determined by scintillation counting.

[2] = system: human platelet rich plasma (PRP); assay: ADP induced platelet aggregation assay
[3] = target: T1, cloned human P2Y1 receptors; assay: Binding Assay B: Scintillation Proximity Assay (SPA) for P2Y1 binding; details: SPA, [33P] 2MeS-ADP displacement; read-out: P2Y1 Ki (nM) using binding assay B
Summary of the method: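 Scintillation proximity readout of 0.3 nM [^33P] tracer displacement from receptor membranes (~15 fmol receptor, 1.7 μg protein). Binding ran 1 h at room temperature to completion; plates were then centrifuged and aqueous phase aspirated before counting.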

[4] = Homo sapiens, Platelet, read-out: PA IC50 (μM) @ 10 μM ADP, platelet aggregation induced by 10 μM ADP, human PRP

T1 sequence (P47900 whole entry): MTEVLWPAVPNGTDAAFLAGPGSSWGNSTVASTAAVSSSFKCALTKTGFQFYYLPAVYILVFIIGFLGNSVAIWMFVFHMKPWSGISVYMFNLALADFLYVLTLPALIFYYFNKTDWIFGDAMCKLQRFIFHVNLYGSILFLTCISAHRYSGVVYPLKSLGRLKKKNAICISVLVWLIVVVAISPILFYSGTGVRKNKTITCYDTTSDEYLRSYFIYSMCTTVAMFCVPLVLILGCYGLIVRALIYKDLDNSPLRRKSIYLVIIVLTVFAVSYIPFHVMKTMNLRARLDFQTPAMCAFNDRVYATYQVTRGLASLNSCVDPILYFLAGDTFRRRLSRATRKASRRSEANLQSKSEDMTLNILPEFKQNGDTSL

SMILES	Ki [1] [nM]	IC50 [2, 4] [µM]	Ki [3] [nM]	IC50 ([2]; read-out: PA IC50 (μM) @ 10 μM ADP, platelet aggregation induced by 10 μM ADP, human PRP) [µM]
CC(C)N1CCC2(CC1)CN(c1ccccc1NC(=O)Nc1ccc(OC(F)(F)F)cc1)c1ccccc12 [Comparator 1, reference compound]	300	29.2		
CC(C)CN1CCC2(CC1)CN(c1ccccc1NC(=O)Nc1ccc(OC(F)(F)F)cc1)c1ccccc12 [Comparator 2, reference compound]	20.2	8.8		
CC(C)N1CCC2(CC1)CN(c1ncccc1NC(=O)Nc1ccc(OC(F)(F)F)cc1)c1ccccc12 [Comparator 3, reference compound]	5300			
CC(C)(C)CN1CCC2(CC1)CN(c1ccccc1NC(=O)Nc1ccc(OC(F)(F)F)cc1)c1c(O)cc(F)c(-c3ccc(F)cc3)c12 [Example 155, 1-(2-(5-Fluoro-4-(4-fluorophenyl)-7-hydroxy-1′-neopentylspiro[indoline-3,4′-piperidin]-1-yl)phenyl)-3-(4-(trifluoromethoxy)phenyl)urea]		0.1	22.5	
CC(C)(C)CN1CCC2(CC1)CN(c1ccccc1NC(=O)Nc1ccc(OC(F)(F)F)cc1)c1c(O)c(F)cc(-c3ccc(Cl)cc3)c12 [Example 156, 1-(2-(4-(4-Chlorophenyl)-6-fluoro-7-hydroxy-1′-neopentylspiro[indoline-3,4′-piperidin]-1-yl)phenyl)-3-(4-(trifluoromethoxy)phenyl)urea]		0.2	20.2	
CC(C)(C)CN1CCC2(CC1)CN(c1ccccc1NC(=O)Nc1ccc(OC(F)(F)F)cc1)c1c(O)cc(F)c(-c3ccc(Cl)cc3)c12 [Example 157, 1-(2-(4-(4-Chlorophenyl)-5-fluoro-7-hydroxy-1′-neopentylspiro[indoline-3,4′-piperidin]-1-yl)phenyl)-3-(4-(trifluoromethoxy)phenyl)urea]		0.2	12.3	
CC(C)(C)CN1CCC2(CC1)CN(c1ccccc1NC(=O)Nc1csc(C(F)(F)F)n1)c1c(O)cc(F)c(-c3ccc(Cl)cc3)c12 [Example 158, 1-(2-(4-(4-Chlorophenyl)-5-fluoro-7-hydroxy-1′-neopentylspiro[indoline-3,4′-piperidin]-1-yl)phenyl)-3-(2-(trifluoromethyl)thiazol-4-yl)urea]		0.3	15.4	
CC(C)(C)CN1CCC2(CC1)CN(c1ccccc1NC(=O)Nc1csc(C(F)(F)F)n1)c1c(O)cc(F)c(-c3ccc(C(F)(F)F)nc3)c12 [Example 159, 1-(2-(5-Fluoro-7-hydroxy-1′-neopentyl-4-(6-(trifluoromethyl)pyridin-3-yl)spiro[indoline-3,4′-piperidin]-1-yl)phenyl)-3-(2-(trifluoromethyl)thiazol-4-yl)urea]		0.1	281	
CC(C)(C)CN1CCC2(CC1)CN(c1ccccc1NC(=O)Nc1ccc(OC(F)(F)F)cc1)c1c(O)cc(F)c(-c3ccc(C(F)(F)F)nc3)c12 [Example 160, 1-(2-(5-Fluoro-7-hydroxy-1′-neopentyl-4-(6-(trifluoromethyl)pyridin-3-yl)spiro[indoline-3,4′-piperidin]-1-yl)phenyl)-3-(4-(trifluoromethoxy)phenyl)urea]		0.1	199	
CC(C)(C)CN1CCC2(CC1)CN(c1ccccc1NC(=O)Nc1nc3ccc(F)cc3s1)c1c(O)cc(F)c(-c3ccc(C(F)(F)F)nc3)c12 [Example 161, 1-(2-(5-Fluoro-7-hydroxy-1′-neopentyl-4-(6-(trifluoromethyl)pyridin-3-yl)spiro[indoline-3,4′-piperidin]-1-yl)phenyl)-3-(6-fluorobenzo[d]thiazol-2-yl)urea]		0.2	41.1	
CC(C)(C)CN1CCC2(CC1)CN(c1ccccc1NC(=O)Nc1nc3ccc(Cl)cc3s1)c1c(O)cc(F)c(-c3ccc(C(F)(F)F)nc3)c12 [Example 162, 1-(6-Chlorobenzo[d]thiazol-2-yl)-3-(2-(5-fluoro-7-hydroxy-1′-neopentyl-4-(6-(trifluoromethyl)pyridin-3-yl)spiro[indoline-3,4′-piperidin]-1-yl)phenyl)urea]		0.5	65.5	
CC(C)(C)CN1CCC2(CC1)CN(c1ccccc1NC(=O)Nc1nc3ccc(Cl)nc3s1)c1c(O)cc(F)c(-c3ccc(Cl)cc3)c12 [Example 164, 1-(2-(4-(4-Chlorophenyl)-5-fluoro-7-hydroxy-1′-neopentylspiro[indoline-3,4′-piperidin]-1-yl)phenyl)-3-(5-chlorothiazolo[5,4-b]pyridin-2-yl)urea]		0.6	24.9	
CC(C)(C)CN1CCC2(CC1)CN(c1ccccc1NC(=O)Nc1nc3ccc(F)cc3s1)c1c(O)cc(F)c(-c3ccc(Cl)cc3)c12 [Example 165, 1-(2-(4-(4-Chlorophenyl)-5-fluoro-7-hydroxy-1′-neopentylspiro[indoline-3,4′-piperidin]-1-yl)phenyl)-3-(6-fluorobenzo[d]thiazol-2-yl)urea]		0.3	56.2	
CC(C)(C)CN1CCC2(CC1)CN(c1ccccc1NC(=O)Nc1nc3ccc(Cl)nc3s1)c1c(O)ccc(Cl)c12 [Example 166, 1-(2-(4-Chloro-7-hydroxy-1′-neopentylspiro[indoline-3,4′-piperidine]-1-yl)phenyl)-3-(5-chlorothiazolo[5,4-b]pyridin-2-yl)urea]			6.8	0.1
CC(C)(C)CN1CCC2(CC1)CN(c1ccccc1NC(=O)Nc1nc3ccc(Cl)nc3s1)c1c(O)ccc(F)c12 [Example 168, 1-(5-Chlorothiazolo[5,4-b]pyridin-2-yl)-3-(2-(4-fluoro-7-hydroxy-1′-neopentylspiro-[indoline-3,4′-piperidine]-1-yl)phenyl)urea]		0.3	8.6	
COc1ccc2nc(NC(=O)Nc3ccccc3N3CC4(CCN(CC(C)(C)C)CC4)c4c(Cl)ccc(O)c43)sc2n1 [Example 169, 1-(2-(4-Chloro-7-hydroxy-1′-neopentylspiro[indoline-3,4′-piperidine]-1-yl)phenyl)-3-(5-methoxythiazolo[5,4-b]pyridin-2-yl)urea]		0.2	11.5	
CC(C)(C)CN1CCC2(CC1)CN(c1ccccc1NC(=O)Nc1nc3ccc(F)nc3s1)c1c(O)ccc(Cl)c12 [Example 170]		0.5	6.5	
CC(C)(C)CN1CCC2(CC1)CN(c1ccccc1NC(=O)Nc1nc3ccc(Cl)nc3s1)c1c(O)cccc12 [Example 172, 1-(5-Chlorothiazolo[5,4-b]pyridin-2-yl)-3-(2-(7-hydroxy-1′-neopentylspiro[indoline-3,4′-piperidine]-1-yl)phenyl)urea]		0.6	5.3	
COc1ccc2nc(NC(=O)Nc3ccccc3N3CC4(CCN(CC(C)(C)C)CC4)c4c(F)ccc(O)c43)sc2n1 [Example 173, 1-(2-(4-Fluoro-7-hydroxy-1′-neopentylspiro[indoline-3,4′-piperidine]-1-yl)phenyl)-3-(5-methoxythiazolo[5,4-b]pyridin-2-yl)urea]		0.3	3.8	
CC(C)(C)CN1CCC2(CC1)CN(c1ccccc1NC(=O)Nc1nc3ccc(F)nc3s1)c1c(O)ccc(F)c12 [Example 174, 1-(2-(4-Fluoro-7-hydroxy-1′-neopentylspiro[indoline-3,4′-piperidine]-1-yl)phenyl)-3-(5-fluorothiazolo[5,4-b]pyridin-2-yl)urea]		0.2	7	
CC(C)(C)CN1CCC2(CC1)CN(c1ccccc1NC(=O)Nc1nc3ccc(Cl)nc3s1)c1c(O)ccc(C(F)(F)F)c12 [Example 175, 1-(5-Chlorothiazolo[5,4-b]pyridin-2-yl)-3-(2-(7-hydroxy-1′-neopentyl-4-(trifluoromethyl)spiro[indoline-3,4′-piperidine]-1-yl)phenyl)urea]		0.5	13.4	
CC(C)(C)CN1CCC2(CC1)CN(c1ncccc1NC(=O)Nc1nc3ccc(Cl)nc3s1)c1c(O)ccc(C(F)(F)F)c12 [Example 176, 1-(5-Chlorothiazolo[5,4-b]pyridin-2-yl)-3-(2-(7-hydroxy-1′-neopentyl-4-(trifluoromethyl)spiro[indoline-3,4′-piperidine]-1-yl)pyridin-3-yl)urea]		0.4	7.2	

From patent US9428504B2, “7-hydroxy-spiropipiperidine indolinyl antagonists of P2Y1 receptor” (BRISTOL-MYERS SQUIBB COMPANY, priority 2012, dated 2016)
